US8921367B2 (Amgen Inc., priority 2012, dated 2014)

Columns and labels:
[1] = test system: solid tumors; settings: days 1 and 8 or days 1, 2 and 3 of 3-week cycle, cited from earlier work
[2] = Ph I dose escalation: MTD and DLT determination; format: in vivo, human; settings: once daily oral, 4 days on/10 days off
From the text: The dose escalation part of the study was aimed at determining a maximum tolerated dose (MTD) and if necessary the MTD with prophylactic GCSF support (MTD-G), and evaluating the safety, tolerability, pharmacokinetics and pharmacodynamics of AMG 900 in subjects with advanced solid tumors.
A subsequent non-accelerated phase (SNAP) then commenced (≦50% dose escalations once the first grade 2 related toxicity occurred; ≦25% if a DLT occurs) in a standard 3+3 design at the dose level where DLT or possibly related grade 2 toxicity was observed. The percent of dose escalation depended upon toxicities observed in previous cohorts. Intra-subject dose escalation was not allowed. An MTD was determined without prophylactic GCSF support. If neutropenia (or neutropenia related toxicity) was dose limiting, then dose escalation proceeded with prophylactic GCSF support beginning at the dose level at which neutropenia (or neutropenia related toxicity) was dose limiting.

[3] = test system: advanced solid tumors; experiment: Ph I clinical dose escalation trial of oral AMG 900; tumor response by CT or MRI using RECIST criteria; format: in vivo, human
From the text: Some of the objectives for the study included (1) determination of the maximal tolerated dose (MTD) and if necessary, the MTD in conjunction with prophylactic amounts of granulocyte colony stimulating factor (GCSF); (2) to evaluate the PD effects of drug exposure on phospho-histone H3 (serine 10) proteins levels in tumor tissue; (3) to evaluate change in tumor volume by volumetric or MRI analysis; and (4) to evaluate tumor response assessed by CT or MRI using RECIST criteria. The clinical trial was conducted in accordance with the following design/protocol:
This is an open-label, sequential dose escalation study evaluating AMG 900 in subjects with advanced solid tumors. The study is being conducted in 2 parts: Part 1—Dose Escalation and Part 2—Dose Expansion. […] One cycle is defined as 14 days. Thus, 1 cycle=2 weeks (14 days) and DLT window=4 weeks (28 days).
In addition, treatment with proton pump inhibitors or H2 receptor antagonists was withheld at least 48 hours prior to the first dose of each treatment cycle until at least 1 hour after the fourth dose of a treatment cycle. Starting Dose:
In addition, treatment with proton pump inhibitors or H2 receptor antagonists were withheld at least 48 hours prior to the first dose of each treatment cycle until at least 1 hour after the fourth dose of a treatment cycle. One cycle was defined as 14 days. […] The investigator or sub-investigator performed a physical examination of each subject during clinic visits. A review of concomitant medications and an assessment of adverse events were performed at every visit.
Efficacy was assessed by standardized contrast-enhanced CT or MRI and evaluated according to RECIST criteria. RECIST 1.0 and RECIST 1.1 criteria is described in the Journal of National Cancer Institute, Vol. 92, No. 3:205-216, 2000 and European Journal of Cancer 45:228-247, 2009, respectively, both disclosures of which are hereby incorporated herein by reference in their entireties. CT or MRI scans with contrast were acquired at baseline, 4 weeks after cycle 1 day 1, 8 weeks after cycle 1 day 1, and every 8 weeks thereafter until disease progression. Scans were acquired with slice thickness of about 5 mm or less. Baseline imaging studies were performed within 2 weeks prior to study day 1, and where practicable, they were performed as close to the day of enrollment as possible.

[4] = test system: AML; experiment: Ph I AML study of oral AMG 900; format: in vivo, human
From the text: The data for both studies are as follows:

[5] = test system: multiple tumor xenografts, including three MDR xenograft models resistant to paclitaxel or docetaxel; experiment: Growth of tumor xenografts; format: in vivo
[6] = test system: CA-125; experiment: CA-125 in ovarian cancer patient of the Ph I trial; format: in vivo, human; settings: platinum-sensitive ovarian cancer patient; 16 mg once daily, 8 mg cycles 4-15, 12 mg at cycle 16; end of cycle 16
Experimental: Disease progression by appearance of new bone lesions in CRPC in the dose expansion phase were evaluated with bone scans. Bone scans were performed at baseline, 4 weeks after cycle 1 day 1, 8 weeks after cycle 1 day 1, and every 8 weeks thereafter until disease progression. Efficacy in ovarian cancer and CRPC were evaluated based on the Rustin criteria (1996) and PCWG2 guidelines, respectively. CA-125 in ovarian cancer and PSA in CRPC were collected every 4 weeks.

[7] = test system: histone H3, a proximal substrate of aurora-B; experiment: In vivo phosphorylation of histone H3
[8] = test system: advanced solid tumor; settings: daily dosing 5 or 10 consecutive days in 3-week cycles; cited from earlier work
[9] = test system: advanced refractory solid tumors; settings: cited from earlier work
[10] = test system: advanced solid malignancies; settings: cited from earlier work

In the case of `Cc1cc(Nc2ncc(F)c(NC3C4C=CC(C4)C3C(N)=O)n2)ccc1N1CCN(C)CC1` (stereo not drawn) [AS703569], the “impact on the patient's solid tumors” value [1] is given as “no positive impact(s)” and the tolerability ([1]; various dosages) is given as “tolerable”.

In the case of `Cc1csc(-c2nnc(Nc3ccc(Oc4ncccc4-c4ccnc(N)n4)cc3)c3ccccc23)c1` [AMG 900, N-(4-((3-(2-amino-4-pyrimidinyl)-2-pyridinyl)oxy)phenyl)-4-(4-methyl-2-thienyl)-1-phthalazinamine], the “doses at which MTD's and DLT's were observed” value [2] is reported as “greater than 8 mg”, the “Observed Response to AMG 900” value ([3]; Patient No. 1, 1 mg once per day oral, 4 days on/10 days off, cholangiocarcinoma, at week 24) is reported as “SD at week 24” and the “Observed Response to AMG 900” value ([3]; Patient No. 2, 8 mg once per day oral, 4 days on/10 days off, prostate, at week 8) is reported as “SD at week 8”. For the same compound, the “Observed Response to AMG 900” value ([3]; Patient No. 3, 16 mg once per day oral, 4 days on/10 days off, ovarian, at week 40) was “SD at week 40”, the “Observed Response to AMG 900” value ([3]; Patient No. 4, 16 mg once per day oral, 4 days on/10 days off, breast, at week 4) was “SD at week 4” and the “Observed Response to AMG 900” value ([3]; Patient No. 5, 24 mg once per day oral, 4 days on/10 days off, colon, at week 8) was “SD at week 8”. The “Observed Response to AMG 900” value ([3]; Patient No. 6, 25 mg once per day oral, 4 days on/10 days off, rectal, at week 56) was “PD at week 56”, the “Observed Response to AMG 900” value ([3]; Patient No. 7, 24 mg once per day oral, 4 days on/10 days off, Medullary thyroid, at week 120) was “SD at week 120” and the “Observed Response to AMG 900” value ([3]; Patient No. 8, 30 mg + GCSF once per day oral, 4 days on/10 days off, endometrial, at Week 64) was “PR at Week 64;”. The “Observed Response to AMG 900” value ([3]; Patient No. 8, 30 mg + GCSF once per day oral, 4 days on/10 days off, endometrial, at week 72) was “SD at week 72”, the “Observed Response to AMG 900” value ([3]; Patient No. 9, 30 mg + GCSF once per day oral, 4 days on/10 days off, chondrosarcoma, at week 40) was “SD at week 40” and the “Observed Response to AMG 900” value ([3]; Patient No. 10, 40 mg + GCSF once per day oral, 4 days on/10 days off, colon, at week 32) was “SD at week 32”. For the same compound, the “Observed Response to AMG 900” value ([3]; Patient No. 11, 40 mg + GCSF once per day oral, 4 days on/10 days off, Non-small cell lung, at week 32) was “SD at week 32”, the “Observed Response to AMG 900” value ([3]; Patient No. 12, 50 mg + GCSF once per day oral, 4 days on/10 days off, thyroid, at week 32) was “SD at week 32” and the “Observed Response to AMG 900” value ([3]; Patient No. 13, 40 mg + GCSF once per day oral, 4 days on/10 days off, prostate, at week 8) was “SD at week 8”. The “lowest once daily dose at which anti cancer activity was observed” value ([3]; once daily oral, 4 days on/10 days off) was 8 mg, the “decrease of long axis diameter of tumor versus base line diameter on day 1” value ([3]; patient with stage IV solid endometrial tumor, 30 mg + GCSF once daily, 4 days on/10 days off, week 24, CT, RECIST 1.0) was “approximately 50%” and the “reduction of short axis diameter of tumor versus base line diameter on day 1” value ([3]; patient with stage IV-B solid ovarian tumor, 30 mg once daily, 4 days on/10 days off, two cycles, week 4, RECIST 1.1) was “about 30%”. For the same compound, the “decrease in SLD (sum of long axis diameters) on CT” value ([3]; platinum-sensitive ovarian cancer patient, 16 mg once daily, 8 mg cycles 4-15, 12 mg at cycle 16, 4-day on-10 day off, end of cycle 16) was 16%, the “reduction of short axis diameter of tumor” value ([3]; same endometrial solid tumor, 30 mg once daily, week 16 after eight (8) cycles, CT, RECIST 1.1) was “up to 40%” and the “Observed Response to AMG 900” value ([4]; Patient No. 14, 80 mg once per day oral, 4 days on/10 days off) was “Active”. For the same compound, the “Observed Response to AMG 900” value ([4]; Patient No. 15, 80 mg once per day oral, 4 days on/10 days off) was “Active”, the “Observed Response to AMG 900” value ([4]; Patient No. 16, 30 mg once per day oral, 7 days on/7 days off) was “Active” and the “growth of tumor xenografts” value [5] was “inhibits the growth”. The “decrease in CA-125” value [6] was 45% and the “phosphorylation of histone H3” value [7] was “blocks the phosphorylation”.

In the case of `CC(=O)NCC(=O)N1[C@@H]2CC[C@H]1c1ccc(Nc3ncc(C(F)(F)F)c(NC4CCC4)n3)cc12` [PF-03814735], the “objective response on the tumors” value [8] is listed as “NO objective response”.

In the case of `CO[C@@H](C(=O)N1Cc2n[nH]c(NC(=O)c3ccc(N4CCN(C)CC4)cc3)c2C1)c1ccccc1` [Danusertib], the “amount that can be safely administered” value ([9]; over 24 hours in 14 day cycles without GCSF) is listed as ≤ 500 mg/m^2 and the tumor response ([9]; within dose of 500 mg/m^2, small cell lung carcinoma, prolonged disease stabilization in other solid tumors) is listed as “prolonged objective response”.

For `CCN(CCCOc1ccc2c(Nc3cc(CC(=O)Nc4cccc(F)c4)n[nH]3)ncnc2c1)CCOP(=O)(O)O` [AZD1152], the “dosage amount safely administered” value ([10]; 2 hour IV infusion every 7 days) is given as ≤ 450 mg and the disease response ([10]; patients with rapidly progressive diseases, within 450 mg dose) is given as “significantly stabilize disease”.
